Reference: article PMC10817917, “Alkyl deoxyglycoside-polymyxin combinations against critical priority carbapenem-resistant gram-negative bacteria” (Scientific Reports, 2024)
“And” between values parts separate entries of the source, which are not always exact repeats. Identical values can stand only once. Like-named read-outs stand apart in the source and are kept apart here.

Key:
K. pneumoniae CQ1942 = test: Broth microdilution MIC, glycosides with or without polymyxins; format: cell-based, Klebsiella pneumoniae; details: for MIC: Klebsiella pneumoniae, CQ1942
E. coli ATCC 25922 = test: Broth microdilution MIC/MBC, glycosides with or without polymyxins; format: cell-based, Escherichia coli; details: for MIC: Escherichia coli, ATCC25922
E. coli NCTC 13846 = test: as above; format: cell-based, Escherichia coli; details: strain B
A. baumannii CQ4322 = test: as above; format: cell-based, Acinetobacter baumannii; details: for MIC: Acinetobacter baumannii, CQ4322
[1] = test system: Bacillus anthracis (Sterne, ovine and pathogenic forms), Enterococcus faecalis and Bacillus cereus; details: Gram-positive bacteria; cited from earlier work
[2] = alone, read-out: MICA (MIC of each compound individually)
[3] = combination with the lowest FICI
[4] = compound + colistin, lowest FICI

With CCCCCCCCCCCCO[C@@H]1O[C@H](C)C[C@H](O)[C@H]1O [Compound 2, dodecyl 4,6-dideoxy-α/β-D-xylo-hexopyranoside] the “MIC of colistin in combination with the compound” value (shortened to “MIC … with the compound”) (K. pneumoniae CQ1942; Cpd conc. 0.4 μg/mL, strain E) was 0.5 µg/mL, the “MIC … with the compound” value (K. pneumoniae CQ1942; Cpd conc. 0.8 μg/mL, strain E) was 0.5 µg/mL and the “MIC … with the compound” value (K. pneumoniae CQ1942; Cpd conc. 3.125 μg/mL, strain E) was 0.5 µg/mL. The “MIC … with the compound” value (K. pneumoniae CQ1942; Cpd conc. 6.25 μg/mL, strain E) was 0.25 µg/mL, the “MIC … with the compound” value (K. pneumoniae CQ1942; Cpd conc. 12.5 μg/mL, strain E) was 0.25 µg/mL and the “MIC … with the compound” value (K. pneumoniae CQ1942; Cpd conc. […], strain E) was 0.5 µg/mL. The MIC (K. pneumoniae CQ1942; agent alone, no adjuvant (polymyxin conc. 0), strain E, read-out: MIC) was > 100 µg/mL, the MIC (K. pneumoniae CQ1942; [2]) was > 100 µg/mL and the “MIC of compound in combination with PMB” value (K. pneumoniae CQ1942; PMB 0.25 μg/mL, strain E) was > 100 µg/mL. The “MIC of compound in combination with PMB” value (K. pneumoniae CQ1942; PMB 0.5 μg/mL, strain E) was ≤ 0.1 µg/mL, the “MIC of compound in combination with colistin” value (K. pneumoniae CQ1942; colistin 0.06 μg/mL, strain E) was > 100 µg/mL and the “MIC of compound in combination with colistin” value (K. pneumoniae CQ1942; colistin 0.125 μg/mL, strain E) was > 100 µg/mL. The “MIC of compound in combination with colistin” value (K. pneumoniae CQ1942; colistin 0.25 μg/mL, strain E) was 6.3 µg/mL, the “MIC of compound in combination with colistin” value (K. pneumoniae CQ1942; colistin 0.5 μg/mL, strain E) was ≤ 0.1 µg/mL and the “MICA(A + B) (MIC of compound in combination with colistin)” value (“MICA(A + B)” for short) (K. pneumoniae CQ1942; [3]) was 6.25 µg/mL. For the same compound, the “MICB(A + B) (MIC of colistin in combination with compound)” value (from here on “MICB(A + B)”) (K. pneumoniae CQ1942; [3]) was 0.25 µg/mL, the “Interpretation (of FICI)” value (K. pneumoniae CQ1942; compound + colistin) was “Additive (from 0.5 to 1.0 were additive)” and the FICI (K. pneumoniae CQ1942; [4]) was 0.53. For the same compound, the “MIC … with the compound” value (E. coli ATCC 25922; Cpd conc. 0.4 μg/mL, strain A) was > 0.5 µg/mL, the “MIC … with the compound” value (E. coli ATCC 25922; Cpd conc. 0.8 μg/mL, strain A) was 0.5 µg/mL and the “MIC … with the compound” value (E. coli ATCC 25922; Cpd conc. 3.125 μg/mL, strain A) was ≤ 0.06 µg/mL. The “MIC … with the compound” value (E. coli ATCC 25922; Cpd conc. 6.25 μg/mL, strain A) was ≤ 0.06 µg/mL, the “MIC … with the compound” value (E. coli ATCC 25922; Cpd conc. 12.5 μg/mL, strain A) was ≤ 0.06 µg/mL and the “MIC … with the compound” value (E. coli ATCC 25922; Cpd conc. […], strain A) was 0.5 µg/mL. The MIC (E. coli ATCC 25922; agent alone, no adjuvant (polymyxin conc. 0), strain A, read-out: MIC) was > 100 µg/mL, the MIC (E. coli ATCC 25922; [2]) was > 100 µg/mL and the “MIC of compound in combination with PMB” value (E. coli ATCC 25922; PMB 0.5 μg/mL, strain A) was 0.8 µg/mL. For the same compound, the “MIC of compound in combination with colistin” value (E. coli ATCC 25922; colistin 0.06 μg/mL, strain A) was 3.1 µg/mL, the “MBC of compound in combination with colistin” value (from here on “MBC of compound in combination”) (E. coli ATCC 25922; colistin 0.125 μg/mL, strain A) was 3.1|3.1 μg/mL and the “MIC of compound in combination with colistin” value (E. coli ATCC 25922; colistin 0.125 μg/mL, strain A) was 3.1 μg/mL and 3.1|3.1 μg/mL. For the same compound, the “MIC of compound in combination with colistin” value (E. coli ATCC 25922; colistin 0.25 μg/mL, strain A) was 3.1 µg/mL, the “MIC of compound in combination with colistin” value (E. coli ATCC 25922; colistin 0.5 μg/mL, strain A) was 0.4 µg/mL and the “MICA(A + B)” value (E. coli ATCC 25922; [3]) was 3.125 µg/mL. The “MICB(A + B)” value (E. coli ATCC 25922; [3]) was 0.06 µg/mL, the “Interpretation (of FICI)” value (E. coli ATCC 25922; compound + colistin) was “Synergy (Values ≤ 0.5 were considered synergistic)” and the FICI (E. coli ATCC 25922; [4]) was 0.14. For the same compound, the “MIC … with the compound” value (E. coli NCTC 13846; Cpd conc. 0.4 μg/mL) was > 0.5 µg/mL, the “MIC … with the compound” value (E. coli NCTC 13846; Cpd conc. 0.8 μg/mL) was > 0.5 µg/mL and the “MIC … with the compound” value (E. coli NCTC 13846; Cpd conc. 3.125 μg/mL) was > 0.5 µg/mL. The “MIC … with the compound” value (E. coli NCTC 13846; Cpd conc. 6.25 μg/mL) was > 0.5 µg/mL, the “MIC … with the compound” value (E. coli NCTC 13846; Cpd conc. 12.5 μg/mL) was > 0.5 µg/mL and the “MIC … with the compound” value (E. coli NCTC 13846; Cpd conc. […]) was > 0.5 µg/mL. The MIC (E. coli NCTC 13846; Escherichia coli, NCTC13846, agent alone, no adjuvant (polymyxin conc. 0), read-out: MIC) was > 100 µg/mL, the “MIC of compound in combination with PMB” value (E. coli NCTC 13846; PMB 0.25 μg/mL) was > 100 µg/mL and the “MIC of compound in combination with PMB” value (E. coli NCTC 13846; PMB 0.5 μg/mL) was > 100 µg/mL. For the same compound, the “MIC of compound in combination with colistin” value (E. coli NCTC 13846; colistin 0.06 μg/mL) was > 100 µg/mL, the “MBC of compound in combination” value (E. coli NCTC 13846; colistin 0.125 μg/mL) was > 100|> 100 μg/mL and the “MIC of compound in combination with colistin” value (E. coli NCTC 13846; colistin 0.125 μg/mL) was > 100|> 100 μg/mL. The “MIC of compound in combination with colistin” value (E. coli NCTC 13846; colistin 0.25 μg/mL) was > 100 µg/mL, the “MIC of compound in combination with colistin” value (E. coli NCTC 13846; colistin 0.5 μg/mL) was > 100 µg/mL and the MIC (A. baumannii CQ4322; agent alone, no adjuvant (polymyxin conc. 0), strain G, read-out: MIC) was > 100 µg/mL. The MIC (A. baumannii CQ4322; [2]) was > 100 µg/mL, the “MIC … with the compound” value (A. baumannii CQ4322; Cpd conc. 0.4 μg/mL, strain G) was > 0.5 µg/mL and the “MIC … with the compound” value (A. baumannii CQ4322; Cpd conc. 0.8 μg/mL, strain G) was 0.5 µg/mL. The “MIC … with the compound” value (A. baumannii CQ4322; Cpd conc. 3.125 μg/mL, strain G) was 0.25 µg/mL, the “MIC … with the compound” value (A. baumannii CQ4322; Cpd conc. 6.25 μg/mL, strain G) was 0.125 µg/mL and the “MIC … with the compound” value (A. baumannii CQ4322; Cpd conc. 12.5 μg/mL, strain G) was 0.125 µg/mL. The “MIC … with the compound” value (A. baumannii CQ4322; Cpd conc. […], strain G) was 0.5 µg/mL, the “MIC of compound in combination with PMB” value (A. baumannii CQ4322; PMB 0.5 μg/mL, strain G) was 0.8 µg/mL and the “MIC of compound in combination with colistin” value (A. baumannii CQ4322; colistin 0.06 μg/mL, strain G) was > 100 µg/mL. For the same compound, the “MBC of compound in combination” value (A. baumannii CQ4322; colistin 0.125 μg/mL, strain G) was 12.5 µg/mL, the “MIC of compound in combination with colistin” value (A. baumannii CQ4322; colistin 0.125 μg/mL, strain G) was 6.3 µg/mL and the “MIC of compound in combination with colistin” value (A. baumannii CQ4322; colistin 0.25 μg/mL, strain G) was 3.1 µg/mL. The “MIC of compound in combination with colistin” value (A. baumannii CQ4322; colistin 0.5 μg/mL, strain G) was 0.8 µg/mL, the “MICA(A + B)” value (A. baumannii CQ4322; [3]) was 6.25 µg/mL and the “MICB(A + B)” value (A. baumannii CQ4322; [3]) was 0.125 µg/mL. For the same compound, the FICI (A. baumannii CQ4322; [4]) was 0.28 and the MIC [1] was > 405 µM.
